Tests used:
SIRPα [1] = experiment: SIRPα gene expression in THP1-derived macrophages by qRT-PCR; assay type: cell-based, human; settings: qRT-PCR (FIG. 2A)
Description: (§1) Macrophages were polarized to M1-like phenotype using 50 ng/mL of interferon gamma (IFNγ, 575306, Biolegend) and 100 ng/mL of bacterial lipopolysaccharide (LPS, L2880, Sigma Aldrich, St. Louis, MO) for 24 hours. To polarize macrophages towards the M2-like phenotype, macrophages were stimulated with 20 ng/mL of IL-4 (214-14, PeproTech) and 20 ng/mL of IL-13 (575904, Biolegend). THP1 monocytes were treated with 5 ng/mL of phorbol 12-myristate 13-acetate (PMA) to induce differentiation into macrophages. Once converted to macrophages, media was replaced to remove PMA prior to treatment and/or polarization. Polarization towards M1 and M2 phenotypes was performed with respective recombinant human cytokines from PeproTech: 50 ng/mL of IFNγ (300-02), 20 ng/mL IL-4 (200-04), and 20 ng/mL IL-13 (200-13). 100 ng/mL LPS was also used to polarize toward the M1 phenotype. 3. In vivo Studies.
qRT-PCR: Total RNA was extracted from cells using the Trizol reagent according to manufacturer's instructions (ThermoFisher Scientific, 15596018). […] RNA was quantified using a NanoDrop One Spectrophotometer (ThermoFisher Scientific). […] Target mRNA was quantified using MyIQ single-color real-time PCR detection system from Bio-Rad (Bio-Rad, Hercules, CA) and iQ SYBR green Supermix (Bio-Rad, 1708882). […] Quantification is expressed in arbitrary units and target mRNA levels were normalized to R-actin expression.

SIRPα [2] = experiment: Cell surface SIRPα expression by flow cytometry; assay type: cell-based, mouse; settings: A31A7 macrophages and BMDMs; flow cytometry (FIG. 2C)
Description: Cell surface expression of CD47 in melanoma cells was evaluated using PE anti-mouse CD47 (clone miap301, […], Biolegend), PE anti-human CD47 (clone CC2C6, 323108, Biolegend), and their respective isotype controls (400508, 400113, respectively, Biolegend). SIRPα was evaluated using APC anti-mouse CD172a (SIRPα) antibody (clone P84, 144014, Biolegend) or APC anti-human CD172a/b (SIRPα/β) antibody (clone SE5A5, 323810, Biolegend) and their respective isotype controls (400411, Biolegend).

B16F10 melanoma tumors = experiment: B16F10 melanoma tumor growth in vivo; parameters: species or system mouse; settings: B16F10-bearing mice; legend: NextA 25 mg/kg IP, αCD47 50 μg IT (FIG. 10A)
Text: The antitumor effects of the combination therapy were also observed in the B16F10 melanoma model following the same experimental protocol as in the SM1 model. […] Regarding the immunophenotyping of tumors, there were no significant differences in the immune cell populations in the B16 TME by flow cytometry (FIG. 10B-FIG. 10E). Thus, the discrepancies between the SM1 and B16F10 tumor models could be explained by the scarce infiltration of immune cells in the TME of B16F10 tumors compared to SM1 tumors (5% versus 15%, respectively, FIG. 10F) as well as the poor immunogenicity of B16 tumors.

SM1 melanoma tumors = experiment: SM1 melanoma tumor growth in vivo; parameters: species or system mouse; settings: SM1-bearing C57/Bl6 mice, NextA 20 mg/kg intraperitoneally, anti-CD47 100 μg intratumorally, every other day, vs vehicle control
Description: Animal experiments were performed in accordance with protocol A354 approved by the Institutional Care and Use Committee (IACUC) at The George Washington University. Female C57BL/6 mice (4-6 weeks old) were purchased from Charles River Laboratories (Wilmington, Massachusetts, USA). Mice were injected subcutaneously in their right flank with 10^6 in vivo passaged SM1 melanoma cells suspended in 100 μL of PBS (Corning, 21-040-CV) at day 0. Cages were randomly assigned to different treatment groups, and mice were treated intraperitoneally with 100 μL of vehicle control or NextA at 20 mg/kg every other day when tumors became palpable, which was a week after tumor implantation.
Six days after the first NextA treatment, mice were also treated intratumorally with 100 μg of αCD47 every two days (clone miap301, BE0270, BioXCell, Lebanon, NH, USA) until the end of the study. Tumor measurements were taken every other day using caliper measurements and calculated using the formula L×W^2/2. All animals were routinely monitored for early signs of toxicity. […]
First, C57/Bl6 mice were inoculated with SM1 melanoma cells (n=15 mice per group). […] The concentrations of NextA and anti-CD47 were determined by performing drug and antibody titrations. Tumor growth was monitored every other day from when the tumors became palpable until the experimental endpoint.

[3] = system: human THP1-derived macrophages; experiment: Pro-phagocytic signal gene expression in THP1-derived macrophages; assay type: cell-based; settings: human THP1-derived macrophages
Description: as §1
qRT-PCR: Total RNA was extracted from cells using the Trizol reagent according to manufacturer's instructions (ThermoFisher Scientific, 15596018). Samples were then processed immediately or stored at −80° C. RNA was quantified using a NanoDrop One Spectrophotometer (ThermoFisher Scientific). The 260/280 ratios were routinely over 1.8. Sample cDNA was produced using the iScript cDNA synthesis kit (Bio-Rad, 1708891). Target mRNA was quantified using MyIQ single-color real-time PCR detection system from Bio-Rad (Bio-Rad, Hercules, CA) and iQ SYBR green Supermix (Bio-Rad, 1708882). The following primers were synthesized by Invitrogen (Waltham, MA) with sequences designed by Origene (Rockville, MD): mouse R-actin (MP200232), mouse Nos2 (MP208933), mouse MRC1 (MP207800), human R-actin (HP204660), human IL-1β (HP200544), human MRC1 (HP206121), human NOS2 (HP200591), human CD209 (HP214086), mouse SIRPα (MP215450), mouse LRP1 (MP207604), human LRP1 (HP206040), mouse MFGE8 (MP208190), human MFGE8 (HP225757), mouse CD36 (MP201923), human CD36 (HP200058), and mouse CD47 (MP201932). […] Quantification is expressed in arbitrary units and target mRNA levels were normalized to R-actin expression.

SMILES: CCCCN(Cc1ccc(C(=O)NO)cc1)C(=O)Nc1ccccc1 [NextA, Nexturastat A]
- SIRPα expression at the transcriptional level (SIRPα [1]): significantly downregulated
- SIRPα expression on the cell surface (SIRPα [2]): significantly decreased
- B16 melanoma tumor growth (B16F10 melanoma tumors): did not decrease
- tumor growth (SM1 melanoma tumors): moderately decreased tumor growth
- tumor growth (SM1 melanoma tumors; listed as Nexturastat A): enhanced the antitumor efficacy of anti-CD47
- expression of Lrp1, Cd36, and Mfge8 [3]: significant increase
